Assay results as given in ChEMBL document CHEMBL5512674, “Novel Acyl Thiourea-Based Hydrophobic Tagging Degraders Exert Potent Anti-Influenza Activity through Two Distinct Endonuclease Polymerase Acidic-Targeted Degradation Pathways” (J Med Chem, 2024).
Active and inactive are the calls of the source. No cut-off for these calls is given here.

Legend:
[1] = Stability in human plasma assessed as compound remaining by LC-MS/MS analysis; assay type: ADME, cell-free
[2] = Hepatic extraction ratio in dog liver microsomes preincubated for 5 mins followed by NADPH addition and measured for 45 mins by LC-MS analysis; assay type: ADME, Canis lupus familiaris, Microsome; settings: time 50 min, read-out: ERH
[3] = Hepatic extraction ratio in human liver microsomes preincubated for 5 mins followed by NADPH addition and measured for 45 mins by LC-MS analysis; assay type: ADME, Microsome; settings: time 50 min, read-out: ERH
[4] = Intrinsic clearance in dog liver microsomes preincubated for 5 mins followed by NADPH addition and measured for 45 mins by LC-MS analysis; assay type: ADME, Canis lupus familiaris, Microsome; settings: time 50 min, read-out: CLH
[5] = Hepatic clearance in human liver microsomes preincubated for 5 mins followed by NADPH addition and measured for 45 mins by LC-MS analysis; assay type: ADME, Microsome; settings: time 50 min
[6] = molecular target: von Hippel-Lindau disease tumor suppressor/Polymerase acidic protein (Influenza A virus (A/Puerto Rico/8/1934(H1N1))) (UniProt P03433+P40337); experiment: PROTAC activity at Influenza A virus A/WSN/33(H1N1) flag tagged Polymerase acidic protein/VHL (unknown origin) expressed in HEK293T cells assessed as degradation of PA expression at 0.02 to 10 uM incubated for 24 hrs by Western blotting analysis; assay type: cell-based; settings: dose 0.02-10 µM
[7] = system: Influenza A virus; experiment: Anti-influenza activity against Influenza A virus A/WSN/33(H1N1) infected in HEK293T cells assessed as reduction in virus-induced cytopathic effect incubated for 48 hrs by CCK-8 assay; assay type: functional, organism-based; settings: HEK-293T
[8] = Hepatic clearance in mouse liver microsomes preincubated for 5 mins followed by NADPH addition and measured for 45 mins by LC-MS analysis; assay type: ADME, Microsome; settings: time 50 min
[9] = system: Influenza A virus; experiment: Anti-influenza activity against Influenza A virus A/PR/8/34 (H1N1) infected in MDCK cells assessed as inhibition of viral growth at 1.6 nM incubated for 48 hrs by luciferase assay relative to control; assay type: functional
[10] = Half life in mouse liver microsomes preincubated for 5 mins followed by NADPH addition and measured for 45 mins by LC-MS analysis; assay type: ADME, Microsome; settings: time 50 min
[11] = Cytotoxicity against dog MDCK cells assessed as reduction in cell viability incubated for 48 hrs by CCK-8 assay; assay type: toxicity, cell-based, Canis lupus familiaris
[12] = Stability in human plasma assessed as compound remaining measured after 60 mins by LC-MS/MS analysis; assay type: ADME, cell-free; settings: read-out: Stability
[13] = Half life in human liver microsomes preincubated for 5 mins followed by NADPH addition and measured for 45 mins by LC-MS analysis; assay type: ADME, Microsome; settings: time 50 min
[14] = Selectivity index, ratio of CC50 for cytotoxicity against human HEK293T cells to EC50 for anti-influenza activity against Influenza A virus A/WSN/33(H1N1) infected in HEK293T cells assessed as reduction in virus-induced cytopathic effect; assay type: toxicity, cell-based; settings: read-out: Ratio CC50/EC50
[15] = Stability in human plasma assessed as compound remaining measured after 15 mins by LC-MS/MS analysis; assay type: ADME, cell-free; settings: read-out: Stability
[16] = Stability in human plasma assessed as compound remaining measured after 30 mins by LC-MS/MS analysis; assay type: ADME, cell-free; settings: read-out: Stability
[17] = Intrinsic clearance in mouse liver microsomes preincubated for 5 mins followed by NADPH addition and measured for 45 mins by LC-MS analysis; assay type: ADME, Microsome; settings: time 50 min, read-out: CLH
[18] = Stability in human plasma assessed as compound remaining measured after 5 mins by LC-MS/MS analysis; assay type: ADME, cell-free; settings: read-out: Stability
[19] = Hepatic extraction ratio in mouse liver microsomes preincubated for 5 mins followed by NADPH addition and measured for 45 mins by LC-MS analysis; assay type: ADME, Microsome; settings: time 50 min, read-out: ERH
[20] = Half life in dog liver microsomes preincubated for 5 mins followed by NADPH addition and measured for 45 mins by LC-MS analysis; assay type: ADME, Canis lupus familiaris, Microsome; settings: time 50 min
[21] = system: Influenza A virus; experiment: Anti-influenza activity against Influenza A virus H3N2 infected in HEK293T cells assessed as reduction in virus-induced cytopathic effect incubated for 48 hrs by CCK-8 assay; assay type: functional, organism-based; settings: H3N2, HEK-293T
[22] = system: Influenza B virus; experiment: Anti-influenza activity against Influenza B virus Victoria/2/87 infected in HEK293T cells assessed as reduction in virus-induced cytopathic effect incubated for 48 hrs by CCK-8 assay; assay type: functional, organism-based; settings: Victoria/2/87, HEK-293T
[23] = system: Influenza B virus; experiment: Anti-influenza activity against Influenza B virus Yamagata/16/88 infected in HEK293T cells assessed as reduction in virus-induced cytopathic effect incubated for 48 hrs by CCK-8 assay; assay type: functional, organism-based; settings: Yamagata/16/88, HEK-293T
[24] = Hepatic clearance in dog liver microsomes preincubated for 5 mins followed by NADPH addition and measured for 45 mins by LC-MS analysis; assay type: ADME, Canis lupus familiaris, Microsome; settings: time 50 min
[25] = system: Influenza A virus; experiment: Anti-influenza activity against Influenza A virus A/PR/8/34 (H1N1) infected in MDCK cells assessed as reduction in virus-induced cytopathic effect incubated for 48 hrs by CCK-8 assay; assay type: functional, organism-based
[26] = Cytotoxicity against human HEK293T cells assessed as reduction in cell viability incubated for 48 hrs by CCK-8 assay; assay type: toxicity, cell-based, HEK-293T
[27] = system: Influenza A virus; experiment: Anti-influenza activity against Influenza A virus A/WSN/33(H1N1) infected in MDCK cells assessed as downregulation of nucleoprotein expression at 1.56 to 100 nM incubated for 24 hrs by Western blotting analysis; assay type: functional, organism-based; settings: dose 1.56-100 nM
[28] = Binding affinity to Influenza A virus A/WSN/33(H1N1) flag tagged Polymerase acidic protein assessed as dissociation constant incubated for 48 hrs by microscale thermophoresis assay; settings: hek293t
[29] = Stability in human plasma assessed as compound remaining measured after 120 mins by LC-MS/MS analysis; assay type: ADME, cell-free; settings: read-out: Stability
[30] = Intrinsic clearance in human liver microsomes preincubated for 5 mins followed by NADPH addition and measured for 45 mins by LC-MS analysis; assay type: ADME, Microsome; settings: time 50 min, read-out: CLH

Q: Which results are given for `CC(C)(C)c1ccc(C(=O)NC(=S)Nc2ccc(N)cc2)cc1`?
A: Stability [1]: 100%; hepatic extraction ratio at 0.75 h [2]: 0.712; hepatic extraction ratio at 0.75 h [3]: 0.359; CLint scaled [4]: 76.5 mL/min/kg; CLhep predicted [5]: 7.43 mL/min/kg; Activity [6]: inactive; EC50 [7]: 332 nM; CLhep predicted [8]: 66.1 mL/min/kg; inhibition at 0.0016 µM [9]: 18%; half-life [10]: 21.9 min; CC50 at 48 h [11]: > 200000 nM; remaining at 1 h [12]: 113%; half-life [13]: 138 min; selectivity ratio [14]: 218; remaining at 0.25 h [15]: 102%; remaining at 0.5 h [16]: 104%; CLint scaled [17]: 249 mL/min/kg; remaining at 5 min [18]: 101%; hepatic extraction ratio at 0.75 h [19]: 0.735; half-life [20]: 26.1 min; EC50 [21]: > 10000 nM; EC50 [22]: 167 nM; EC50 [23]: 151 nM; CLhep predicted [24]: 22 mL/min/kg; EC50 [25]: 24 nM; CC50 at 48 h [26]: 72300 nM; Activity [27]: Active; Kd [28]: 487000 nM; remaining at 2 h [29]: 112%; CLint scaled [30]: 11.6 mL/min/kg
